{"source": "patent US12391683B2", "about": "“Therapeutic compounds and methods” (Actio Biosciences, Inc., priority 2022, dated 2025)", "target": "Human TRPV4 (Homo sapiens, UniProt Q9HBA0)", "sequence (Q9HBA0 whole entry)": "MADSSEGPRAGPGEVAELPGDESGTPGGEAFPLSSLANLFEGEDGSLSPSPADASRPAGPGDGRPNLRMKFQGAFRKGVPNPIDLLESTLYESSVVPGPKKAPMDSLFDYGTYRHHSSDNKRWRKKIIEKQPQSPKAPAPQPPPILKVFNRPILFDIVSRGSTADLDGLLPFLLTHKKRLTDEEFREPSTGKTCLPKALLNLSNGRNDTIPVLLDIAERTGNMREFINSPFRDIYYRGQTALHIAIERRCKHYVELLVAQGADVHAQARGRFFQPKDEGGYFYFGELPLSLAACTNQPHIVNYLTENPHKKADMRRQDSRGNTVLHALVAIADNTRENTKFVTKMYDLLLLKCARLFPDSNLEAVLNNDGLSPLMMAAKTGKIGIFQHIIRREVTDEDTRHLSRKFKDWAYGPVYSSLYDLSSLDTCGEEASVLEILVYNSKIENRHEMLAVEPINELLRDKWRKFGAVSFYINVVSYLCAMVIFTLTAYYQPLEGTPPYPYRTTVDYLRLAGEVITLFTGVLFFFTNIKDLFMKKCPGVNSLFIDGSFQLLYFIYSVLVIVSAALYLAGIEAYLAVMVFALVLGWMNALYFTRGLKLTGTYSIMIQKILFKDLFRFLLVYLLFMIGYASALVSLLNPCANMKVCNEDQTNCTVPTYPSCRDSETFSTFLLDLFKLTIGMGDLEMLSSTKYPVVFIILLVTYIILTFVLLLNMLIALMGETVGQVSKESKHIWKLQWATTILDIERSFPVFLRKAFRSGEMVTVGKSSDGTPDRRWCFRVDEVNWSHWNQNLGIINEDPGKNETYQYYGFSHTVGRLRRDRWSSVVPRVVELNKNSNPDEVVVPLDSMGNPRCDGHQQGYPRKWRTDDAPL", "experiment": "TRPV4 calcium flux assay (FLIPR, antagonist mode)", "format": "cell-based", "set-up": "HiBiT (inferred from the expression read-out); host or cells: HEK293T", "conditions": "HEK293T cells transfected with hTRPV4; antagonist mode vs EC80 of TRPV4 agonist; average of at least 3 separate experiments; read-out: Human TRPV4 Ca2+ Assay IC50", "protocol": "Example 23. TRPV4 Calcium Assay Methods\nHuman embryonic kidney 293T (HEK293T/293T) cells are cultured in complete media (Dulbecco's Modified Eagle Medium (DMEM), containing 10% fetal bovine serum (FBS) and 1× penicillin-streptomycin) in a T-75 tissue culture flask. At 90% confluency, cells are detached using TrypLE™ Express cell dissociation buffer. TrypLE™ Express buffer is neutralized by adding culture media in excess. Cells are gently triturated and counted using trypan blue in a Countess 3 automated cell counter. Cells are transferred to a 50 mL conical tube and spun down at 1000 rotations per minute (RPM) for five minutes in a benchtop centrifuge. Media containing detaching enzyme is aspirated off the pellet, followed by resuspension to the desired concentration of 2×10^6 cells per mL in complete DMEM.\nTransfection preparations were scaled using a combination of 6 μg of TRPV4 wild-type or mutant plasmid DNA, 36 μL of Fugene6 transfection reagent, and 1000 μL of OptiMEM media for every 2×10^6 cells needed. The transfection mix is left to incubate for 20 minutes at room temperature. Total seeding mixture (1000 μL 2×10^6 cells, 1000 μL transfection mix previously described, and 1000 μL complete DMEM) for one transfection is combined into a 15 mL conical tube. The cells and transfection plasmid are mixed thoroughly and dispensed into a reservoir. This is plated at 25 μL per well in a black 384, black-well, clear-bottom, tissue-culture treated plate. This yields approximately 16,000 cells per well. Plasmid DNA constructs were designed by Actio Biosciences in conjunction with Genscript, and generated by Genscript, for all hTRPV4 wild-type and hTRPV4 P/LP (ClinVar) mutations (G78W, P82S, T891, P97R, R186Q, R232C, R232P, R237G, R237Q, R237 L, R269C, R269H, R269S, G270V, R271P, F273 L, K276E, E278K, G280S, Y281S, R315G, R315W, R316C, R316H, R316 L, R316S, I331F, D333G, S403T, K403T, K407E, S542P, S542Y, L543R, Y591N, R594C, R594H, R594S, G600E, Y602C, R616Q, F617 L, L618P, V6201, A716S, A716T, L735R, T740I, R775K, W785R, E797D, E797K, P799A, P799R, P799S, P799 L, G800D, K801E, P827H, F471del, N797del). The remaining cells are plated in the same manner, in a 384, white-well, clear-bottom, tissue-culture treated plate for expression and relative cell number determination. Plates are placed in the incubator at 37° C. overnight.\nCompounds were brought to 10 mM in DMSO. DMSO concentration was kept constant throughout the dilution of any compound. DMSO negative control and concentration-response curves were nanoliter-spotted via PICO8 automated dispenser at 5× test concentration into a 384w clear polypropylene plate containing 1×HBSS+20 mM HEPES buffer. A predetermined concentration equivalent to the EC80 of TRPV4 agonist on hTRPV4 was prepared at 6× in 1×HBSS+20 mM HEPES and loaded into a separate 384-well v-bottom polypropylene plate.\nApproximately 18 hours post-transfection, the cell plates were removed from the incubator and equal volume (25 uL) Calcium 6 dye was gently added. Calcium 6 dye containing probenecid (final 5 mM) was prepared per manufacturer's instructions. Cell plate was returned to the incubator for 1 hour, at 37° C.\nFLIPR Penta was programmed to add compound using the following settings • Pipettor Head=384 • Read Mode 1 Excitation Wavelength=470_495 • Read Mode 1 Emission Wavelength=515_575 • Read Mode 1 Exposure=0.1000 • Read Mode 1 Gain=6.50 • Read Mode 1 Excitation Intensity=20 • Volume of addition=12.5 μL • Height=40 μL • Speed=15 μL/second\nRaw data was exported and analyzed for maximum signal (RFU) after agonist addition—the average baseline (RFU) in the first 15 seconds per well. Data was plotted in GraphPad Prism to determine EC50 or IC50 of the molecules.", "data": [{"compound": "CC(C)(O)c1cnc(N2C[C@@]3(CC[C@@H](F)[C@](C)(Cn4cnc5ccc(C#N)cc54)C3)OC2=O)cn1", "note": "(single isomer, unassigned) [Example 5]", "values": [{"measurement": "IC50", "result": 13, "unit": "nM"}]}]}
